In brackets after ≈: the same amount, converted by molar mass.
What was measured:
[1] = target: T1, Isoleucine--tRNA ligase, cytoplasmic (Homo sapiens, UniProt P41252); experiment: Inhibition of IleRS
T1 sequence (P41252 whole entry): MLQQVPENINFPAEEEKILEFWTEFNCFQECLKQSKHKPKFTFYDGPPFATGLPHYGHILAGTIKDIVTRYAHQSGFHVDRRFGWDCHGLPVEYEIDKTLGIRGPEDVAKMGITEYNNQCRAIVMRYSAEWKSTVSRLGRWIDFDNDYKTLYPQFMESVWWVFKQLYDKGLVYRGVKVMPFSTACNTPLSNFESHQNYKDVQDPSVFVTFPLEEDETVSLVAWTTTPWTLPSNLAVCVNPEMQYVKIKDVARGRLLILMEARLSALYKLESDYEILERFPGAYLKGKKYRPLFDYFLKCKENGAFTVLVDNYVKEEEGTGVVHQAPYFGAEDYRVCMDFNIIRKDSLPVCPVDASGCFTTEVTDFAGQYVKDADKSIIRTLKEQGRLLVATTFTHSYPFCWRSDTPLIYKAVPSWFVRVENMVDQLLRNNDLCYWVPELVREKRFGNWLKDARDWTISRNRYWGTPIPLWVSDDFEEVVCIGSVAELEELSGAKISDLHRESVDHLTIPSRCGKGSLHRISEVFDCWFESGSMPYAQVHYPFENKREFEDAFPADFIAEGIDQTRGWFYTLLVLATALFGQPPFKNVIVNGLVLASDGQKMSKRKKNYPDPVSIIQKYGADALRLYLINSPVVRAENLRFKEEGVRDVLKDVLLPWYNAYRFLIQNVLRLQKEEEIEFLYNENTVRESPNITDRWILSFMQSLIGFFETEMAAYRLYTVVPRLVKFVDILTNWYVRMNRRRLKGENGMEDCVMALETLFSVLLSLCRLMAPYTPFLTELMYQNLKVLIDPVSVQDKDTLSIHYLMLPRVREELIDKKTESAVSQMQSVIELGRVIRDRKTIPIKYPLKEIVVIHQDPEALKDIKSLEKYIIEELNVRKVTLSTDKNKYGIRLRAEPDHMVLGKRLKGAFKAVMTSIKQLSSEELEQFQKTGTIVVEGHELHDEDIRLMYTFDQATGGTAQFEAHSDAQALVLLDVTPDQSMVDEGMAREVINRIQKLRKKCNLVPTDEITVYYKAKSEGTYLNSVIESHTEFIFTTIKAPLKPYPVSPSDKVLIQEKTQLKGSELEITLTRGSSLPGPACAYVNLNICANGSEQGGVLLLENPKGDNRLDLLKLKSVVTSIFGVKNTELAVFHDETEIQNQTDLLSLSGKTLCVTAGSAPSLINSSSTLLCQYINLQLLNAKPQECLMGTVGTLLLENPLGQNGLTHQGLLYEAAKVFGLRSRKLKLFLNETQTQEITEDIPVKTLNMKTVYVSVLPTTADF

NRK [2] = experiment: Effect on morphological reversion in src transformed NRK cells at 100 ug/mL; format: functional; conditions: Rattus norvegicus
NRK [3] = experiment: Effect on morphological reversion in src transformed NRK cells at 30 ug/mL; format: functional; conditions: Rattus norvegicus
NRK [4] = experiment: Effect on morphological reversion in src transformed NRK cells at 10 ug/mL; format: functional; conditions: Rattus norvegicus
NRK [5] = experiment: Effect on morphological reversion in src transformed NRK cells at 3 ug/mL; format: functional; conditions: Rattus norvegicus
NRK [6] = experiment: Effect on morphological reversion in src transformed NRK cells at 1 ug/mL; format: functional; conditions: Rattus norvegicus
Osteoclast = experiment: Induction of apoptosis in mouse osteoclasts; format: functional
NRK [7] = experiment: Toxicity against src transformed NRK cells at 100 ug/mL; format: cell-based; conditions: rat
NRK [8] = experiment: Effect on morphological reversion in src transformed NRK cells at 0.3 ug/mL; format: functional; conditions: Rattus norvegicus
NRK [9] = experiment: […] morphological reversion in src transformed NRK cells; format: functional, cell-based; conditions: Rattus norvegicus

| SMILES | IC50 [1] [nM] | inhibition at 100 µg/mL (NRK [2]) [%] | inhibition at 30 µg/mL (NRK [3]) [%] | inhibition at 10 µg/mL (NRK [4]) [%] | inhibition at 3 µg/mL (NRK [5]) [%] | inhibition at 1 µg/mL (NRK [6]) [%] | Activity (Osteoclast) [µg/mL] | Activity (NRK [7]) | inhibition at 0.3 µg/mL (NRK [8]) [%] | EC50 (NRK [9]) [µg/mL] |
| --- | --- | --- | --- | --- | --- | --- | --- | --- | --- | --- |
| CCCC[C@@]1(OC(=O)CCC(=O)OC)CC[C@]2(CC[C@H](C)[C@@H](C/C=C(C)/C=C/[C@H](O)[C@@H](C)/C=C/C(=O)O)O2)O[C@H]1/C=C/C(C)=C/C(=O)O | 434 | > 80 | > 80 | > 80 | > 80 | 10 | 2.5 |  |  |  |
| CC(/C=C/[C@H](OC(=O)CCC(=O)O)[C@@H](C)/C=C/C(=O)O)=C\C[C@H]1O[C@@]2(CC[C@H](C)[C@H](/C=C/C(C)=C/C(=O)O)O2)CC[C@@H]1C | > 1660 |  | < 10 | < 10 | < 10 |  | 12.4 | Toxic |  |  |
| CCCC[C@@]1(OC(=O)CCC(=O)O)CC[C@]2(CC[C@H](C)[C@@H](C/C=C(C)/C=C/[C@H](O)[C@@H](C)/C=C/C(=O)O)O2)O[C@H]1/C=C/C(C)=C/C(=O)O [REVEROMYCIN A] | 4.46 | > 80 | > 80 | 50 | 20 | 10 | 0.06 |  | < 10 | 1.58 (≈ 2.39 µM) |
| CCCC[C@@]1(OC(=O)CCC(=O)O)CC[C@]2(CC[C@H](C)[C@@H](C/C=C(C)/C=C/[C@H](O)[C@@H](C)/C=C/C(=O)OC)O2)O[C@H]1/C=C/C(C)=C/C(=O)O | 313 | > 80 | > 80 | > 80 | 20 | < 10 | 2 |  |  |  |
| CCCC[C@@]1(OC(=O)CCC(=O)O)CC[C@]2(CC[C@H](C)[C@@H](C/C=C(C)/C=C/[C@H](O)[C@@H](C)/C=C/C(=O)O)O2)O[C@H]1/C=C/C(C)=C/C(=O)OC | > 1480 | > 80 | > 80 | 10 | < 10 | < 10 | 3.1 |  |  |  |
| CCCC[C@@]1(OC(=O)CCC(=O)O)CC[C@]2(CC[C@H](C)[C@@H](C/C=C(C)/C=C/[C@H](OC(C)=O)[C@@H](C)/C=C/C(=O)O)O2)O[C@H]1/C=C/C(C)=C/C(=O)O | > 1420 | > 80 | > 80 | 50 | < 10 | < 10 | 0.46 |  |  |  |
| CCCC[C@@]1(OC(=O)CCC(=O)O)CC[C@]2(CC[C@H](C)[C@@H](C/C=C(C)/C=C/[C@H](O)[C@@H](O)/C=C/C(=O)O)O2)O[C@H]1/C=C/C(C)=C/C(=O)O [4-HYDROXY REVEROMYCIN A] | 21.7 | > 80 | 20 | 10 | < 10 | < 10 | 1.01 |  | < 10 |  |
| CCCC[C@@]1(OC(=O)CCC(=O)O)CC[C@]2(CC[C@H](C)[C@@H](C/C=C(C)/C=C/[C@H](O)[C@@H](C)CO)O2)O[C@H]1/C=C/C(C)=C/C(=O)O | 36.9 | > 80 | 20 | < 10 | < 10 | < 10 | 6.31 |  | < 10 |  |
| CC(/C=C/[C@H](O)[C@@H](C)/C=C/C(=O)O)=C\C[C@H]1O[C@]2(CC[C@H](C)[C@H](/C=C/C(C)=C/C(=O)O)O2)CC[C@@H]1C [SPIROFUNGIN B] | > 1990 | < 10 | < 10 | < 10 | < 10 |  | >30 |  |  |  |
| CCCC[C@@]1(OC(=O)CCC(=O)O)CC[C@]2(CC[C@H](C)[C@@H](C/C=C(C)/C=C/[C@@H](O)[C@@H](C)CCC(=O)O)O2)O[C@H]1/C=C/C(C)=C/C(=O)O [2,3-DIHYDRO-5-EPIREVEROMYCIN A] | 88 | 50 | < 10 | < 10 | < 10 |  | 0.82 |  |  |  |
| CC(/C=C/[C@H](O)[C@@H](C)/C=C/C(=O)O)=C\C[C@H]1O[C@@]2(CC[C@H](C)[C@H](/C=C/C(C)=C/C(=O)O)O2)CC[C@@H]1C [SPIROFUNGIN A] | 1120 | > 80 | 20 | 10 | < 10 |  | >30 |  |  |  |
| CCCC[C@@]1(OC(=O)CCC(=O)O)CC[C@]2(CC[C@H](C)[C@@H](C/C=C(C)/C=C/[C@@H](O)[C@@H](C)/C=C/C(=O)O)O2)O[C@H]1/C=C/C(C)=C/C(=O)O [5-EPIREVEROMYCIN A] | 572 | < 10 | < 10 | < 10 | < 10 |  | 21.5 |  |  |  |
